pIC50: −log10 of the molar value. Read-outs that look alike come from different tables or passages of the source.
What was measured:
[1] = test system: JeKo1; assay: In vitro cytotoxicity analysis, JeKo1; format: cell-based; details: Homo sapiens, JeKo-1
Source text: (§1) The A549 lung cancer, WiDr colorectal cancer, MCF-7 breast cancer, PC-3 prostate cancer, and OVCAR-3 ovarian cancer cell lines were purchased from the American Type Culture Collection (ATCC, Manassas, Va.) and were maintained in growth media as recommended by the ATCC. The JeKo-1 and JVM-2 mantle cell lymphoma cell lines were purchased from the DSMZ (Brunswick, Germany) and were maintained in growth media as recommended by the vendor. The pediatric rhabdomyosarcoma Rh18 cell line was provided y Dr. P. Houghton (Ohio State University—Nationwide Children's Hospital, Columbus, Ohio) and were maintained in growth media as recommended by Dr. Houghton. All cell culture media were supplemented with L-glutamine and penicillin/streptomycin. All cells were grown under standard culture conditions in CO2 incubators, at 37° C., with 5% CO2, and 100% relative humidity.
(§2) Cell viabilities were determined by measuring the cleavage of (sodium 3′-[1-(phenylaminocarbonyl)-3,4-tetrazolium]-bis(4-methoxy-6-nitro)benzene sulfonic acid hydrate) (XTT) to a water-soluble orange formazan by mitochondrial dehydrogenase, following the manufacturer's instructions (Roche Applied Science, Indianapolis, Ind.). Briefly, cell lines were seeded at various cell densities depending on the cell type. The adherent cell lines were allowed to adhere overnight before compound addition, whereas the suspension cell lines were seeded the day of compound addition. Stock concentrations of the compounds were made in DMSO, diluted in culture media and subsequently added to the plates at various final concentrations, then incubated for 72 hours. After the incubation period, the XTT labeling reagent, containing the electron-coupling reagent, was added to each well and incubated for 4 hours. The absorbance of each well was then read at 490 nm with a reference wavelength of 690 nm using a VersaMax™ microplate reader (Sunnyvale, Calif.). Data are expressed as the percentage of growth compared to vehicle-treated cells, as calculated from absorbance and corrected for background absorbance.
(§3) Alternatively, cell lines were seeded in 100 μL cell culture medium in 96-well plates. Depending on the cell proliferation rate, cells were seeded at 4,000 to 6,000 cells/well. Suspension cell cultures were initiated with 20,000 cells/well. The cells were incubated overnight at 37° C., and then the drug treatments were started by adding 50 μL medium containing the corresponding drug dilution and DMSO. The final concentration of DMSO onto the cells was 0.5% v/v in all wells. The cells viability was determined using the CellTiter-Glo Luminescent Cell Viability Assay (Promega, Madison, Wis.). The CellTiter-Glo reagent was prepared according to the manufacturer's instructions, and then 50 μL reagent was added to each well for 1 h at rt. The luminescence was measured on an Envision Multilabel Plate Reader (PerkinElmer, Waltham, Mass.). The IC50 values were calculated from the dose-response curve analysis with GraphPad Prism 6.01 (GraphPad Software, La Jolla, Calif.) using the nonlinear regression model 4 Parameter Logistic. Nine concentrations were generated by 1:2 serial dilutions for each IC50 assay. Each drug concentration was evaluated in triplicate or quadruplicate.

[2] = test system: PC3; assay: In vitro cytotoxicity analysis, PC3; format: cell-based; details: Homo sapiens
Source text: as §1, §2, §3

[3] = test system: SK-MEL-2; assay: Drug combination assay, SK-MEL-2; format: cell-based; details: for Interaction Type: listed drug combined with compound 19, Ineffective = drug IC50 much higher than 1 μM
Method: (§4) Preliminary cytotoxic screenings for each drug used in drug combination assays were performed to determine their cytotoxic dose range. […] Eight concentrations were established by 1:3 serial dilutions of the single drugs and their combinations with the splicing modulators. All drug concentrations were evaluated in triplicate in 96-well cell culture plates. Assays of individual drugs and drug combinations were run on the same tissue culture plate. Cell viability was determined using the CellTiter-Glo reagent.
(§5) Luminescence data obtained from the cell viability determinations were formatted per the requirements of the analytical software (viability data range: >0 and <1). The formatted data were analyzed with the software CalcuSyn 2.1 (Biosoft, Cambridge, UK), which provides quantitative CI values for the drug interaction analyses (see ranges in Supplementary Table S2).

[4] = test system: HeLa; assay: Drug combination assay, HeLa; format: cell-based
Method: as §4, with “reagent. Drug interactions, in terms of synergism, additive effect, or antagonism, were based on the drugs' Combination Index (CI) (Chou et al., Adv. Enzyme Regul. 1984, 22, 27).” for “reagent.”
as §5, with “S2). […] Therefore, in these two cases the drug interaction was evaluated by comparing the IC50 value of Sudemycin with that of the IC50 values resulting from the serial dilutions of the splicing modulator combined with a constant dose of the non-toxic drug.” for “S2).”

[5] = test system: cell lines investigated; assay: Drug combination assays, cell line not stated; format: cell-based
Method: as §4, §5

[6] = test system: MDM2 alternative splicing in Rh18 cells; assay: In vitro alternative splicing assay (MDM2, RT-PCR); format: cell-based; details: for MDM2 Splicing Effects: Rh18 cells, 8 h exposure, Table II
Method: Briefly, following an 8 h exposure of exponentially growing cells to drug, total RNA was isolated using TRIzol reagent (Invitrogen, Carlsbad, Calif.). Total RNA (1 μg) was used to convert the mRNA to cDNA by using random primers, Oligo(dT)16 and Omniscript Reverse Transcription Kit (Qiagen, Germantown, Md.). PCR analyses were performed using specific oligonucleotides (see Table I) and standard amplification protocols. PCR products were separated by agarose gel electrophoresis, visualized by ethidium bromide staining on an UV transilluminator, and recorded. PCR band sizes were calculated by comparing them to the standard EZ Load 100-bp PCR Molecular Ruler (BioRad Laboratories, Hercules, Calif.).

[7] = Mouse plasma stability (HPLC); format: in vitro ADME; details: mouse plasma at 37° C.
[8] = Solubility in phosphate buffered saline (HPLC); format: physicochemical
[9] = test system: cytotoxicity or splicing modulation; assay: Rapid onset of cytotoxicity or splicing modulation; format: cell-based; details: maximum cytotoxicity or splicing modulation within 5 hours of drug treatment
Method: The cell were seeded in of 100 μl of medium into 96-well plates (HeLa at 4×10^4 cell/well; SK_MEL_2 at 6×10^4 cell/well), they were allowed to attach overnight, and then treatments started by adding 50 μl of medium containing Sudemycin D6 to produce a final concentration of 1 μM and DMSO to 0.5% v/v final into the experimental well. Continuous drug treatments were run in the same plate, using concentrations of 0, 62.5, 125, 250, 500 & 1000 nM final. DMSO was added into all wells, including non-treated wells to 0.5% v/v final concentration. For wells where the drug was withdrawn, the medium was carefully aspirated after 1, 2, 3 and 4 hours after the addition of the drug, the cells were washed once with PBS and then 150 μl of fresh cell culture medium containing 0.5% v/v DMSO was added into all washed out wells. After 72 hours of the addition of drug, the cell viability was determined using CellTiter-Glo luminescent cell viability assay (Promega, Madison, Wis.), and Sudemycin D6 cytotoxicity was calculated as the percentage of cell proliferation inhibition against the control treatment DMSO.

[10] = test system: c-kit positive bone marrow cells transduced with GFP, WT-U2AF1 or MUT-U2AF1 (S34F); assay: GFP expression and apoptosis in U2AF1 transduced cells; format: cell-based, C57BL/6 mice
Method: Bone marrow was collected from C57BL/6 mice and pooled together in a single solution, and then c-kit positive cells were selected. The c-kit positive cells were cultured with media enriched with stem cell factor (SCF), Flt-3, IL3, and thromboprotein (TPO), and other cytokines. Murine stem cell virus (MSCV) was used to transduce these cells with one of three constructs as indicated in the figure: GFP (control), U2AF1-IRES-GFP (indicated as WT-U2AF1 in the figure), or U2AF1^S34F-IRES-GFP (indicated as MUT-U2AF1 in the figure). The transduced cells carry a construct that expresses GFP and as indicated wild-type or mutant U2AF1. The control cells construct expresses only GFP. […] The assay data are expressed as the percentage of annexin V stained cells among the GFP positive cells. […] These cells show an increased tendency to apoptosis (i.e. increased expression of annexin V) in the GFP positive cells.

[11] = test system: AML blast cells with wild-type or mutant S34F U2AF1, CD34+ cells; assay: Replication by 5-ethynyl-2′-deoxyuridine incorporation; format: cell-based; details: concentration dependent; mutant vs wild-type U2AF1 AML blasts vs CD34+ cells
Method: Replication was determined from incorporation of 5-ethynyl-2′-deoxyuridine using standard assay techniques.

[12] = test system: PC-3; assay: Drug combination assay, PC-3; format: cell-based; details: inhibitor + compound 19
Method: as §4, with “reagent. Drug interactions, in terms of synergism, additive effect, or antagonism, were based on the drugs' Combination Index (CI) (Chou et al., Adv. Enzyme Regul. 1984, 22, 27).” for “reagent.”
as §5, with “S2). […] Therefore, in these two cases the drug interaction was evaluated by comparing the IC50 value of Sudemycin with that of the IC50 values resulting from the serial dilutions of the splicing modulator combined with a constant dose of the non-toxic drug.” for “S2).”

[13] = test system: Sk-N-AS; assay: Drug combination assay, Sk-N-AS neuroblastoma; format: cell-based; details: Sk-N-AS; inhibitor + compound 19
Method: as §4, §5

[14] = test system: WiDr; assay: Drug combination assay, WiDr; format: cell-based; details: inhibitor + compound 19
Method: as §4, with “reagent. Drug interactions, in terms of synergism, additive effect, or antagonism, were based on the drugs' Combination Index (CI) (Chou et al., Adv. Enzyme Regul. 1984, 22, 27).” for “reagent.”
as §5, with “S2). […] Therefore, in these two cases the drug interaction was evaluated by comparing the IC50 value of Sudemycin with that of the IC50 values resulting from the serial dilutions of the splicing modulator combined with a constant dose of the non-toxic drug.” for “S2).”

[15] = PC-3, Table III, read-out: PC3 IC50

CCN(CC)C(=O)O[C@@H](C)/C=C\C(=O)N[C@H]1CO[C@@H](C/C=C(C)/C=C/[C@@H]2C[C@]3(CO3)CC(C)(C)O2)OC1
pIC50 ([1]; Table III): < 6.00
pIC50 ([2]; PC-3, read-out: PC3 IC50): < 5.00

CNC(=O)O[C@@H](C)/C=C\C(=O)N[C@H]1CO[C@@H](C/C=C(C)/C=C/[C@@H]2C[C@]3(CO3)CC(C)(C)O2)OC1
pIC50 ([1]; Table III): 6.05
pIC50 ([2]; PC-3, read-out: PC3 IC50): < 5.00

O=C(O)CCCCCCCCCCCNC(=O)NC12CC3CC(CC(C3)C1)C2 [AUDA]
Interaction Type [3]: Synergism (0.3-0.7)
cytotoxicity alone ([4]; HeLa cells, 15 μM): not cytotoxic
drug interaction with compound 19 (panel of 23 drugs) [5]: synergy
cytotoxic effect of drug alone ([5]; single drug in combination assays): Neither AUDA nor NCND alone produced a cytotoxic effect

CC(/C=C/[C@@H]1C[C@]2(CO2)CC(C)(C)O1)=C\C[C@H]1OC[C@@H](NC(=O)/C=C\[C@H](C)OC(N)=O)CO1
pIC50 ([1]; Table III): 5.72
pIC50 [2, 15]: < 5.00

CC(/C=C/[C@@H]1C[C@]2(CO2)CC(C)(C)O1)=C\C[C@H]1CC[C@@H](NC(=O)/C=C\[C@H](C)OC(=O)C(C)C)CC1
MDM2 Splicing Effects [6]: Yes
pIC50 ([1]; Table II): 7.33
Plasma Stability [7]: No
Buffer Soluble [8]: No
Rapid Onset [9]: Yes (“Yes” indicates maximum cytotoxicity or splicing modulation is seen within 5 hours of drug treatment.)

CCCCNC(=O)O[C@@H](C)/C=C\C(=O)N[C@H]1CO[C@@H](C/C=C(C)/C=C/[C@@H]2C[C@]3(CO3)CC(C)(C)O2)OC1
pIC50 ([1]; Table III): < 6.00
pIC50 [2, 15]: < 5.00

COCCNC(=O)O[C@@H](C)/C=C\C(=O)N[C@H]1CO[C@@H](C/C=C(C)/C=C/[C@@H]2C[C@]3(CO3)CC(C)(C)O2)OC1
pIC50 ([1]; Table III): < 6.00
pIC50 [2, 15]: < 5.00

CC(/C=C/[C@@H]1C[C@]2(CO2)CC(C)(C)O1)=C\C[C@H]1CC[C@@H](NC(=O)/C=C\[C@H](C)OC(=O)N(C)C)CC1 [compound 19, (S,Z)-5-(((1R,4R)-4-((2E,4E)-5-((3R,5S)-7,7-Methyl-1,6-Dioxaspiro[2.5]Octan-5-Yl)-3-Methylpenta-2,4-Dien-1-Yl)Cyclohexyl)Amino)-5-Oxopent-3-En-2-Yl Dimethylcarbamate]
alternative MDM2 splicing ([6]; Rh18, 8 h, PCR (FIG. 9)): induction of alternative MDM2 splicing
synergy with PI3K/mTOR inhibition ([5]; all cell lines investigated): synergy is also seen
apoptosis (annexin V stained cells among GFP positive cells) ([10]; 75 or 100 nM): cells expressing mutant U2AF1 the most sensitive
effect on expression of GFP from the splicing construct ([10]; concentration dependent, GFP vs WT-U2AF1 vs MUT-U2AF1 cells): greater sensitivity realized in the mutant U2AF1 cells
effect on replication [11]: cells expressing mutant U2AF1 are extremely sensitive

C=CCN(/C=C1/C(=O)O[C@H](COC)[C@@]2(C)C1=C(O)C(=O)C1=C2[C@H](OC(C)=O)C[C@]2(C)C(=O)CC[C@@H]12)CC=C [PX-866]
CI in SK-MEL-2 with compound 19 ([3]; Combination Index at ED50, CalcuSyn 2.1, listed drug + compound 19): 0.57
CI of 19 + inhibitor ([3]; SK-MEL-2, inhibitor + compound 19): 0.57
Interaction Type [3]: Synergism (0.3-0.7)
CI of 19 + inhibitor ([4]; HeLa, inhibitor + compound 19): 0.49
CI of 19 + inhibitor [12]: 0.67
CI of 19 + inhibitor [13]: 0.65
CI of 19 + inhibitor [14]: 0.33
drug interaction with compound 20 [5]: demonstrated synergy

CC(/C=C/C1C[C@]2(CO2)CC(C)(C)O1)=C\C[C@H]1OC[C@@H](NC(=O)/C=C\[C@H](C)OC(=O)N(C)C)CO1 (stereo partly shown)
MDM2 Splicing Effects [6]: Yes
pIC50 ([1]; Table II): 6.52
Plasma Stability [7]: Yes (“Yes” indicates mouse plasma stability is >5 hours in mouse plasma at 37 °C as determined by HPLC.)
solubility ([8]; aqueous buffer, read-out: Buffer Soluble): > 10 µM
Rapid Onset [9]: No
